The results in this text go back to ChEMBL document CHEMBL1201862, “PubChem BioAssay data set” (2004).

Test systems include K562; MCF7; ACHN; SK-MEL-5; SK-MEL-2; MDA-MB-435; U-251; HOP-92; SW-620; Hs-578T; HT-29; PC-3; MDA-MB-231; OVCAR-5; OVCAR-8; KM12; SK-OV-3; M14; UO-31; HCC 2998.
Test in all cases: NCI-60 cell line screen, 48 h

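In this assay, cells in 96-well plates receive the compound at five concentrations for 48 hours. Endpoints are linearly interpolated between the surrounding concentrations. GI50 is the concentration that inhibits growth by half.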 Calls of active or inactive are those of the source. Rule as the data show it: active = GI50 up to about 1.1 µM and inactive = higher. Where a SMILES comes first, the peptide text is derived from it. [ ]: non-standard residue; d: D form. ξ: configuration not given here. ξThz(5,5-Me2) = CC1(C)SCNC1C(=O)O A value given as a limit tells only on which side of the number the result lay.

Regarding `Nc1nnnn1CCO`, the GI50 in the experiment with K562, in the experiment with MCF7, in the experiment on ACHN, in the experiment with SK-MEL-5, in the experiment on SK-MEL-2 and in the experiment with MDA-MB-435 was > 100 µM (inactive) each time. Further, the GI50 in the experiment with U-251, in the experiment with HOP-92, in the experiment on SW-620, with Hs-578T, with HT-29 and with PC-3 was > 100 µM (inactive) in each case. Also, the GI50 with MDA-MB-231, with OVCAR-5, in the experiment on OVCAR-8, in the experiment with KM12, in the experiment on SK-OV-3 and with M14 was > 100 µM (inactive) each time. Further, the GI50 in the experiment on UO-31 was > 100 µM (inactive).

As to `O=C1NC(=O)C2(CCCCCC2)N1`, the GI50 with K562, in the experiment with MCF7, with ACHN, with SK-MEL-5, with SK-MEL-2 and in the experiment on MDA-MB-435 was > 100 µM (inactive) each time. In addition, the GI50 with U-251, with HOP-92, in the experiment on SW-620, in the experiment with Hs-578T, with HT-29 and with PC-3 was > 100 µM (inactive) each time. For the same compound, the GI50 in the experiment with MDA-MB-231, with OVCAR-5, in the experiment on OVCAR-8, in the experiment with KM12, in the experiment on SK-OV-3 and in the experiment on M14 was > 100 µM (inactive) each time. In addition, in the experiment on UO-31, the GI50 was > 100 µM (inactive).

Take `COc1ccc(OC)c(/C=C/c2ccnc3ccccc23)c1`: the GI50 in the experiment on K562 is 0.191 µM (active); in the experiment with MCF7, 0.851 µM (active); in the experiment with ACHN, 0.533 µM (active); in the experiment with SK-MEL-5, 0.272 µM (active); in the experiment on MDA-MB-435 it was 0.167 µM (active); with HCC 2998, 1.24 µM (inactive). Further, the GI50 with U-251 was 0.374 µM (active); in the experiment on HOP-92 it was 1.07 µM (active); with SW-620, 0.366 µM (active); in the experiment with Hs-578T it was 0.34 µM (active); in the experiment on HT-29, 0.321 µM (active); with PC-3, 0.514 µM (active). In addition, the GI50 is 0.565 µM (active) in the experiment on MDA-MB-231; 2.43 µM (inactive) with OVCAR-5; 0.191 µM (active) with OVCAR-8; 0.312 µM (active) in the experiment with KM12; 0.403 µM (active) in the experiment with SK-OV-3; 0.375 µM (active) with M14. Besides, the GI50 in the experiment with UO-31 was 0.458 µM (active).

For `CC(C)CCCC(C)[C@H]1CC[C@H]2N/C(=N/Cc3ccccc3)CCC[C@]12C` (stereo not given in full), the GI50 with K562 was 1.26 µM (inactive); in the experiment with MCF7, 1.71 µM (inactive); in the experiment with SK-MEL-5, 1.58 µM (inactive); with SK-MEL-2, 1.97 µM (inactive); with MDA-MB-435, 1.64 µM (inactive); in the experiment with U-251 it was 1.78 µM (inactive). The GI50 is 2.09 µM (inactive) in the experiment with HOP-92; 1.91 µM (inactive) in the experiment with SW-620; 3.37 µM (inactive) in the experiment with Hs-578T; 1.28 µM (inactive) in the experiment on HT-29; 1.81 µM (inactive) in the experiment with PC-3; 2.05 µM (inactive) in the experiment on MDA-MB-231. The GI50 in the experiment on OVCAR-8 is 1.67 µM (inactive); with KM12, 1.88 µM (inactive); with SK-OV-3, 5.31 µM (inactive); in the experiment on M14 it was 2.32 µM (inactive); in the experiment on UO-31 it was 2.59 µM (inactive).

With `CCOC(=O)c1c(C)n(Cc2ccccc2)c2c1cc(O)c1[nH]c3c(c12)CCCC3`, the GI50 in the experiment on K562 is 3.33 µM (inactive); with MCF7 it was 2.36 µM (inactive); with ACHN, 11.3 µM (inactive); in the experiment with SK-MEL-5 it was 3.98 µM (inactive); in the experiment on SK-MEL-2 it was 2.31 µM (inactive); in the experiment on MDA-MB-435 it was 11.9 µM (inactive). Also, the GI50 with U-251 is 1.81 µM (inactive); in the experiment with HOP-92, < 0.01 µM (active); in the experiment with SW-620, 3.65 µM (inactive); in the experiment with Hs-578T it was 2.25 µM (inactive); in the experiment on HT-29 it was 13.4 µM (inactive); in the experiment with PC-3, 2.43 µM (inactive). In addition, the GI50 with MDA-MB-231 was 5.35 µM (inactive); in the experiment on OVCAR-5, 7.08 µM (inactive); in the experiment on OVCAR-8, 6.32 µM (inactive); with KM12, 3.17 µM (inactive); in the experiment on SK-OV-3 it was 10.3 µM (inactive); in the experiment with M14 it was 6.52 µM (inactive). Besides, the GI50 in the experiment with UO-31 was 2.58 µM (inactive).

Take `COc1cc(/N=N/N(C)C)c(C(C)c2c3cc(OC)c(OC)cc3cc[n+]2C)cc1OC` (stereo not given): the GI50 is 18.1 µM (inactive) with K562; 33.4 µM (inactive) in the experiment with MCF7; > 100 µM (inactive) in the experiment on ACHN; 21.4 µM (inactive) with SK-MEL-5; 24.9 µM (inactive) with SK-MEL-2; 40.7 µM (inactive) in the experiment with MDA-MB-435. In addition, the GI50 in the experiment with HCC 2998 was 34.6 µM (inactive); with U-251, 38.6 µM (inactive); in the experiment on SW-620, 85.7 µM (inactive); in the experiment on Hs-578T it was 63.5 µM (inactive); in the experiment on HT-29, 35.4 µM (inactive); in the experiment with PC-3 it was 38.5 µM (inactive). The GI50 with MDA-MB-231 is 26.3 µM (inactive); in the experiment with OVCAR-5 it was > 100 µM (inactive); in the experiment on OVCAR-8, 39.1 µM (inactive); with KM12, 14.3 µM (inactive); in the experiment with SK-OV-3, > 100 µM (inactive); with M14, 86.3 µM (inactive). For the same compound, the GI50 in the experiment on UO-31 is > 100 µM (inactive).

As to `Cc1nc2c(n1CCCl)C(=O)c1ccccc1C2=O`, the GI50 is 16 µM (inactive) with K562; 18.9 µM (inactive) in the experiment with MCF7; 28.9 µM (inactive) with ACHN; > 10 µM (inactive) in the experiment with SK-MEL-5; 15.3 µM (inactive) in the experiment on MDA-MB-435; 21.7 µM (inactive) with HCC 2998. Moreover, the GI50 is 12.6 µM (inactive) in the experiment on U-251; 29.2 µM (inactive) in the experiment with HOP-92; 23 µM (inactive) in the experiment on SW-620; 20.1 µM (inactive) in the experiment with Hs-578T; 15.8 µM (inactive) in the experiment with HT-29; 8.43 µM (inactive) in the experiment on PC-3. Moreover, the GI50 in the experiment on MDA-MB-231 is 15.4 µM (inactive); in the experiment with OVCAR-5, 19 µM (inactive); in the experiment on OVCAR-8, 17.9 µM (inactive); with KM12 it was 25.3 µM (inactive); with SK-OV-3, 5.22 µM (inactive); with M14, 4.68 µM (inactive).

As for `Cc1ccc(O)c(Cc2nc3ccccc3nc2-c2cccc(Br)c2)c1`, the GI50 with K562 was 34.4 µM (inactive); in the experiment with MCF7, 37.1 µM (inactive); with ACHN it was 55.1 µM (inactive); in the experiment with SK-MEL-5, > 100 µM (inactive); in the experiment with SK-MEL-2, > 100 µM (inactive); in the experiment with MDA-MB-435, > 100 µM (inactive). Moreover, the GI50 is > 100 µM (inactive) with U-251; > 100 µM (inactive) in the experiment on HOP-92; 86.3 µM (inactive) with SW-620; 12.5 µM (inactive) in the experiment with Hs-578T; > 100 µM (inactive) in the experiment on HT-29; > 100 µM (inactive) in the experiment with PC-3. For the same compound, the GI50 in the experiment with MDA-MB-231, in the experiment on OVCAR-5, in the experiment on OVCAR-8, in the experiment on KM12, with SK-OV-3 and in the experiment with M14 was > 100 µM (inactive) each time. For the same compound, the GI50 in the experiment with UO-31 was 89.1 µM (inactive).

For `O=c1nc2n3c4c(cccc4nc-2c(=O)[nH]1)CCC3`, the GI50 was > 100 µM (inactive) with K562; 58.3 µM (inactive) in the experiment on MCF7; > 100 µM (inactive) in the experiment with ACHN; > 100 µM (inactive) in the experiment on SK-MEL-5; > 100 µM (inactive) in the experiment with SK-MEL-2; 61.9 µM (inactive) with MDA-MB-435. Moreover, the GI50 is > 100 µM (inactive) in the experiment with HCC 2998; > 100 µM (inactive) with U-251; > 100 µM (inactive) with SW-620; 28.2 µM (inactive) in the experiment with Hs-578T; 95.9 µM (inactive) in the experiment on HT-29; > 100 µM (inactive) in the experiment with PC-3. For the same compound, the GI50 was > 100 µM (inactive) in the experiment on MDA-MB-231; > 100 µM (inactive) with OVCAR-5; > 100 µM (inactive) in the experiment with OVCAR-8; 37.4 µM (inactive) in the experiment on KM12; > 100 µM (inactive) in the experiment with SK-OV-3; > 100 µM (inactive) with M14. In addition, the GI50 in the experiment on UO-31 is > 100 µM (inactive).

For the compound `CN(C)CCOC(=O)c1ccc(N)cc1`, the GI50 was 30 µM (inactive) in the experiment with K562; 32.6 µM (inactive) with MCF7; 54.1 µM (inactive) with ACHN; 25.6 µM (inactive) with SK-MEL-5; 41.8 µM (inactive) in the experiment with MDA-MB-435; 16 µM (inactive) in the experiment on HCC 2998. Moreover, the GI50 in the experiment with U-251 is 32.1 µM (inactive); in the experiment with HOP-92 it was 12.6 µM (inactive); in the experiment with SW-620, 64.4 µM (inactive); in the experiment with Hs-578T, 32.4 µM (inactive); in the experiment on HT-29 it was 27 µM (inactive); in the experiment on PC-3, 12.1 µM (inactive). For the same compound, the GI50 in the experiment with MDA-MB-231 was 16.1 µM (inactive); in the experiment with OVCAR-5 it was 29.6 µM (inactive); in the experiment on OVCAR-8 it was 70.8 µM (inactive); with KM12, 37.2 µM (inactive); in the experiment on SK-OV-3, 56.6 µM (inactive); in the experiment with M14 it was 17.6 µM (inactive). In the experiment with UO-31, the GI50 was 33.8 µM (inactive).

Turning to `CSCC[C@H](NC(=O)[C@H](CC(C)C)NC(=O)[C@H](Cc1c[nH]cn1)NC(=O)CNC(=O)C1N(C(=O)[C@@H](C)NC(=O)[C@H](Cc2c[nH]c3ccccc23)NC(=O)[C@H](CCC(N)=O)NC(=O)[C@@H](N)CC(N)=O)CSC1(C)C)C(N)=O` (stereo not given in full) (H-NQW[dA][ξThz(5,5-Me2)]GHLM-NH2), the GI50 in the experiment with K562, in the experiment with MCF7, in the experiment with ACHN, in the experiment with SK-MEL-5, in the experiment on MDA-MB-435 and with HCC 2998 was > 25 µM (inactive) in each case. The GI50 in the experiment with U-251, in the experiment on HOP-92, in the experiment on SW-620, in the experiment on Hs-578T, in the experiment with HT-29 and with PC-3 was > 25 µM (inactive) each time. For the same compound, the GI50 in the experiment with MDA-MB-231, with OVCAR-5, in the experiment on OVCAR-8, with KM12, in the experiment with SK-OV-3 and in the experiment with M14 was > 25 µM (inactive) in each case.
